Experimental data: patent US10501748B2, “Methods and compositions for integration of an exogenous sequence within the genome of plants” (Dow AgroSciences LLC, priority 2013, dated 2019)

Key:
[1] = test system: protoplasts of SEC-derived cell suspension culture of cv. Bobwhite MPB26RH; test: basal tolerance to BASTA of protoplast agarose bead-type cultures (calli growth); type: cell-based, Triticum aestivum; details: 2 weeks
Text: BASTA® selection conditions are optimized using protoplasts derived from somatic embryogenic callus (SEC)-derived cell suspension culture of the wheat line cv. Bobwhite MPB26RH. While protoplasts derived from Bobwhite MPB26RH are non-totipotent (i.e., cannot be used to regenerate entire plants), the selection conditions established for enriching the events that express the PAT gene are expected to be transferable to any protoplast-based transformation system based on a totipotent wheat genotype. The experiments are conducted, and the basal tolerance of the wild-type donor wheat line cv. Bobwhite MPB26RH to BASTA® is established. The use of BASTA® selection conditions stronger than basal tolerance are identified and used to select for transformed cells expressing the PAT gene.
Protoplasts are isolated from an established SEC-derived cell suspension culture and used to establish agarose bead-types cultures, as described previously. The basal tolerance of wheat line cv. Bobwhite MPB26RH to BASTA® is determined by incubating the agarose bead-type cultures in media supplemented with 0, 0.5, 2.5, 5, 7.5, 10, 20, 30, 40 and 50 mg/L BASTA® and assessing the rate of calli growth after 2 weeks. The BASTA® concentrations (e.g., higher than 20 mg/L) that severely impeded calli development are optimal for enriching and selecting wheat cells having the PAT gene.

[2] = test system: scutella of wild-type cv. Bobwhite MPB26RH (P197/P197); test: basal tolerance to sulfometuron methyl at the callus induction stage; type: cell-based, Triticum aestivum; details: 100 nM, 4 weeks, compared to untreated samples
Protocol: A series of experiments were performed to determine optimal selection conditions for regenerating wheat plants expressing the AHAS (P197S) mutation conferring tolerance to sulfonylurea class herbicides. These experiments were based on testing the basal tolerance of the wild-type donor wheat line cv. Bobwhite MPB26RH (P197/P197 genotype, which confers susceptibility to sulfonylureas) at the callus induction, plant regeneration and rooting stages of an established wheat transformation system. Similar experiments were performed to determine the basal tolerance of transgenic cv. Bobwhite MPB26RH events that had randomly integrated T-DNA expressing the AHAS (P197S) mutation, which confers tolerance to sulfonylurea selection agents.
The basal tolerance of the wild-type donor wheat line to sulfometuron methyl at the callus induction stage was determined as follows: scutella of immature zygotic embryos were isolated, as previously described in Example 4, and placed in 10 cm petri dishes containing CIM medium supplemented with 0, 100, 500, 1000, 1500 and 2000 nM sulfometuron methyl, respectively. Twenty scutella were placed in each petri dish. A total of 60 scutella were tested at each sulfometuron methyl concentration. After incubation at 24° C. in the dark for 4 weeks, the amount of somatic embryogenic callus formation (SEC) at each sulfometuron methyl concentration was recorded. […]

[3] = test system: somatic embryogenic callus of wild-type cv. Bobwhite MPB26RH; test: basal tolerance to sulfometuron methyl at the plant regeneration stage; type: cell-based, Triticum aestivum; details: wild-type donor wheat line; 2000 nM; 2 weeks; compared to untreated samples
Protocol: The basal tolerance of the wild-type donor wheat line to sulfometuron methyl at the plant regeneration stage was determined as follows: scutella of immature zygotic embryos from the donor wheat line were isolated and placed in 10 cm petri dishes containing CIM medium. Then SEC was allowed to form by incubating at 24° C. in the dark for 4 weeks. The SEC was transferred to 10 cm petri dishes containing DRM medium supplemented with 0, 100, 500, 1000, 1500, 2000, 2500 and 3000 nM sulfometuron methyl, respectively. Twenty CIM were placed in each petri dish. A total of 60 CIM were tested for basal tolerance response at each sulfometuron methyl concentration. After incubation for 2 weeks at 24° C. under a 16/8 (light/dark) hour photoperiod in a growth room, the regeneration response was recorded.

[4] = test system: regenerated plants of wild-type cv. Bobwhite MPB26RH; test: basal tolerance to sulfometuron methyl at the plant rooting stage; type: in vivo, Triticum aestivum; details: wild-type donor wheat line; 3 weeks
Protocol: The basal tolerance of the wild-type donor wheat line to sulfometuron methyl at the plant rooting stage was determined as follows: scutella of immature zygotic embryos were isolated and placed in 10 cm petri dishes containing CIM medium. Then SEC was allowed to form by incubating at 24° C. in the dark for 4 weeks. The SEC was transferred to 10 cm petri dishes containing DRM medium and incubated for 2 weeks at 24° C. under a 16/8 (light/dark) hour photoperiod to allow plant regeneration to take place. Regenerated plants were transferred to 10 cm petri dishes containing RM medium supplemented with 0, 100, 200, 250, 300, 400, 500, 1000 and 2000 nM sulfometuron methyl, respectively. Ten regenerated plants were placed in each petri dish. A total of 30 regenerated plants were tested for basal tolerance response at each sulfometuron methyl concentration. After incubation for 3 weeks at 24° C. under a 16/8 (light/dark) hour photoperiod in a growth room, the root formation response was recorded.

[5] = test system: transgenic wheat events with low-copy T-DNA expressing AHAS (P197S); test: basal tolerance to sulfometuron methyl at the rooting stage of transgenic AHAS (P197S) events; type: in vivo, Triticum aestivum; details: transgenic AHAS (P197S) events from pDAS000164; 400-600 nM; 2 weeks
Protocol: The basal tolerance of transgenic wheat events with randomly integrated, low-copy (≤3) T-DNA expressing the AHAS (P197S) mutation to sulfometuron methyl from pDAS000164 at the plant rooting stage was determined as follows: four independent transgenic events were randomly selected and multiplied in vitro by sub-culturing on multiplication medium. Following multiplication, plants for each event were transferred to 10 cm petri dishes containing RM medium supplemented with 0, 400, 450, 500, 550 and 600 nM sulfometuron methyl, respectively. Four plants (one from each of the four events) were placed in each petri dish. A total of 3 plants per event were tested for basal tolerance at each sulfometuron methyl concentration. After incubation for 2 weeks at 24° C. under a 16/8 (light/dark) hour photoperiod in a growth room, the root formation response was recorded.

Row | Structure (SMILES) | concentrations that severely impeded calli development [1] | reduction of SEC formation [2] | reduction of plant regeneration [3] | concentrations at which root formation was severely inhibited [4] | root formation compared to untreated controls [5]
1 | CP(=O)(O)CCC(N)C(=O)O (racemic) [BASTA, DL-Phosphinothricin] | higher than 20 mg/L | – | – | – | –
2 | COC(=O)c1ccccc1S(=O)(=O)NC(=O)Nc1nc(C)cc(C)n1 [sulfometuron methyl] | – | about 70% | about 80% | higher than 400 nM | not restricted
